For four compounds, Kd and Bmax results are on record in ChEMBL document CHEMBL1125116 (J Med Chem, 1990).

One data set deals with D(2) dopamine receptor (Rattus norvegicus, UniProt P61169). Briefly: Evaluated in vitro for the affinity towards Dopamine receptor D2 of rat striatal tissue.
Data set [1] is described as follows: Maximum […] (Bmax) was determined. It counts as ADME, organism-based. Particulars: in vivo.

D(2) dopamine receptor, sequence (P61169 whole entry): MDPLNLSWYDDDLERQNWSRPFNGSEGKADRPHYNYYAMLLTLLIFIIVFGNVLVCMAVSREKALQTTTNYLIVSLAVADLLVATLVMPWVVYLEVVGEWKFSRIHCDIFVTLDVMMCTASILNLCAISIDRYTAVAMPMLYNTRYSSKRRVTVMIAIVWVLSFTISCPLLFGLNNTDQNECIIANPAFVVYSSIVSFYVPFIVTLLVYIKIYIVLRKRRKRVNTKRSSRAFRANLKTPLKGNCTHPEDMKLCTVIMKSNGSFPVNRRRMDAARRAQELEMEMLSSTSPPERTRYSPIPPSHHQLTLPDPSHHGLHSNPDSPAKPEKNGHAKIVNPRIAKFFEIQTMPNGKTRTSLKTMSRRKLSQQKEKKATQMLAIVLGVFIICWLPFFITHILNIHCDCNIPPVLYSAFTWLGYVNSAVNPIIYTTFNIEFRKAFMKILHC

By Kd is commonly meant the equilibrium constant for the complex coming apart. A lower Kd goes with tighter binding. As for `CCN1CCC[C@H]1CNC(=O)c1cc(I)ccc1OC` [IODOPRIDE], on D(2) dopamine receptor, the Kd is 3000 pM. This lies in the single-digit nanomolar range. Regarding `CCN1CCC[C@H]1CNC(=O)c1c(OC)ccc(S(N)(=O)=O)c1I` [IODOSULPIRIDE], on D(2) dopamine receptor, the Kd is 1500 pM. On the same count and under the same terms, as for `CCN1CCC[C@H]1CNC(=O)c1c(OC)ccc(I)c1O` [IOLOPRIDE], the figure is 430 pM. For the compound `CN1CN(c2ccccc2)C2(CCN(CCCC(=O)c3ccc(F)cc3)CC2)C1=O` [MESPIPERONE], the Bmax in data set [1] was determined as 16.6 pM/g. Besides, the equilibrium dissociation constant (Kd) on D(2) dopamine receptor came out at 97 pM.
